Measured values taken from US10682352B2, “Compound having mutant IDH inhibitory activity, preparation method and use thereof” (SHANGHAI HAIHE PHARMACEUTICAL CO., LTD., priority 2016, dated 2020).

Target: IDH1 R132H (Homo sapiens (Human), UniProt O75874, R132H)
Assay: Effect on the enzyme activity of IDH1 at the molecular level (NADPH consumption, diaphorase/resazurin)
Type: biochemical
Settings: α-KG 1 mM, NADPH 4 μM, 60 min room temperature
Procedure: The enzyme used in the experiment was purchased from cayman Co.
The substrates α-KG, NADPH and Diaphorase were purchased from Sigma; Resazurin was purchased from J&K; and the remaining reagents were purchased from Sinopharm Chemical Reagent Co., Ltd.
Compound preparation: Compound 12000 g was centrifuged for 5 min, DMSO was added to prepare 10 mM, which was vortexed, then ultrasonic treatment for 10 minutes, and stored at −40° C. The stock solution was diluted firstly with DMSO to a 10 μM solution when tested and then gradient-diluted for 3 times to a different test concentration.
Test method: The enzyme activity of IDH1 to convert α-KG to 2HG was measured by the consumption of NADPH. After the enzymatic reaction was completed, a catalytic excess of diaphorase and reazurin were added, and the resulting fluorescent signal could reflect the amount of remaining NADPH. […] IC50 values were calculated using GraphPad Prism software.

Sequence of IDH1 R132H (O75874 whole entry R132H): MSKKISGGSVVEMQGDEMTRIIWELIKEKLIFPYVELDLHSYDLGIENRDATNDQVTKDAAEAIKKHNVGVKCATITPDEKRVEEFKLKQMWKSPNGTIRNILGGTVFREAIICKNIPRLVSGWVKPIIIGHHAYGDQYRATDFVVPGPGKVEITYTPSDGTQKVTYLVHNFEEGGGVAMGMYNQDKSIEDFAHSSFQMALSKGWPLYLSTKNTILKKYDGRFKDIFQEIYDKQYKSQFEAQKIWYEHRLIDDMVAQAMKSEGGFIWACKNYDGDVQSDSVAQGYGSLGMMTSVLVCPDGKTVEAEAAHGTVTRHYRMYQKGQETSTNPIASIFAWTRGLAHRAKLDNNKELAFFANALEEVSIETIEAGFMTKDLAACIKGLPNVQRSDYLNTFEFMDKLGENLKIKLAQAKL

Row | Compound | IC50
1 | [2H]C1([2H])[C@H](C(C)C)N(c2ccnc(N[C@@H](C)c3ccc(-c4cccc(Cl)c4)cn3)n2)C(=O)N1C [Compound 2, (S)-3-(2-(((S)-1-(5-(3-chlorophenyl)pyridin-2-yl)ethyl)amino)pyrimidin-4-yl)-4-isopropyl-1-methyl-imidazolidine-2-one-5,5-dideutero] | 0.1 to 1 µM
2 | CC(C)[C@H]1CNC(=O)N1c1ccnc(NC2(c3cn(-c4ccc(Cl)cc4)cn3)CC2)n1 [Compound 8, (S)-1-(2-((1-(1-(4-chlorophenyl)-1H-imidazol-4-yl)cyclopropyl)amino)pyrimidin-4-yl)-5-isopropyl imidazolidine-2-one] | 0.1 to 1 µM
3 | CC(Nc1nccc(N2C(=O)NC[C@@H]2C(C)C)n1)c1ccc(Oc2ccccc2)cc1 (stereo partly drawn) [Compound 9, (5S)-5-isopropyl-1-(2-((1-(4-phenoxyphenyl)ethyl)amino)pyrimidin-4-yl)imidazolidine-2-one] | 0.1 to 1 µM
4 | C[C@H](Nc1nccc(N2C(=O)NCC23CCCC3)n1)c1cn(-c2ccc(Cl)cc2)cn1 [Compound 11, (S)-1-(2-((1-(1-(4-chlorophenyl)-1H-imidazol-4-yl)ethyl)amino)pyrimidin-4-yl)-1,3-diazaspiro[4.4]-2-one] | 0.1 to 1 µM
5 | C[C@H](Nc1nccc(N2C(=O)NCC2(C)C)n1)c1cn(-c2ccc(Cl)cc2)cn1 [Compound 12, (S)-1-(2-((1-(1-(4-chlorophenyl)-1H-imidazol-4-yl)ethyl)amino)pyrimidin-4-y 1)-5,5-dimethyl imidazolidine-2-one] | 0.1 to 1 µM
6 | O=C1NC[C@H](c2ccccc2)N1c1ccnc(NC2(c3cn(-c4ccc(Cl)cc4)cn3)CC2)n1 [Compound 13, (S)-1-(2-((1-(1-(4-chlorophenyl)-1H-imidazol-4-yl)cyclopropyl)amino)pyrimidin-4-yl)-5-phenylimidazolidine-2-one] | 0.1 to 1 µM
7 | C[C@H](Nc1nccc(N2C(=O)NC[C@@H]2C2CC2)n1)c1cn(-c2ccc(Cl)cc2)cn1 [Compound 14] | 0.1 to 1 µM
8 | CC(C)[C@H]1CNC(=O)N1c1ccnc(NC2(c3ccc(-c4ccc(Cl)cc4)cc3)CC2)n1 [Compound 16, (S)-1-(2-((1-(4′-chloro-[1,1′-biphenyl]-4-yl)cyclopropyl)amino)pyrimidin-4-yl)-5-isopropyl imidazolidine-2-one] | 0.1 to 1 µM
9 | CC(C)[C@H]1CN(C)C(=O)N1c1ccnc(NC2(c3cn(-c4ccc(Cl)cc4)cn3)CC2)n1 [Compound 19, (S)-3-(2-((1-(1-(4-chlorophenyl)-1H-imidazol-4-yl)cyclopropyl)amino)pyrimidin-4-yl)-4-isopropyl-1-methylimidazolidine-2-one] | 0.1 to 1 µM
10 | Cc1ccc(-n2cnc(C3(Nc4nccc(N5C(=O)NC[C@@H]5C(C)C)n4)CC3)c2)cn1 [Compound 29, (S)-5-isopropyl-1-(2-((1-(1-(6-methylpyridin-3-yl)-1H-imidazol-4-yl)cyclopropyl)amino)pyrimidine-4-yl)-2-one] | 0.1 to 1 µM
11 | CCN1C[C@H](C(C)C)N(c2ccnc(NC3(c4cn(-c5cccc(Cl)c5)cn4)CC3)n2)C1=O [Compound 41] | 0.1 to 1 µM
12 | CC(C)[C@H]1CN(C)C(=O)N1c1ccnc(NC2(c3cn(-c4cc(Cl)cc(C#N)c4)cn3)CC2)n1 [Compound 45, (S)-3-chloro-5-(4-(1-((4-(5-isopropyl-3-methylimidazolidine-2-one-1-yl)pyrimidin-2-yl)amine)cyclopropyl)-1H-imidazolidine-1-yl) phenyl cyanide] | < 0.1 µM
13 | CC(C)[C@H]1CN(C)C(=O)N1c1ccnc(NC2(c3cn(-c4ccccc4Cl)cn3)CC2)n1 [Compound 51, (S)-3-(2-((1-(1-(2-chlorophenyl)-1H-imidazol-4-yl)cyclopropyl)amino)pyrimidin-4-yl)-4-isopropyl-1-methylimidazolidine-2-one] | 0.1 to 1 µM
14 | CC(C)[C@H]1CN(C)C(=O)N1c1ccnc(NC2(c3cn(-c4cccc(C5CC5)c4)c(Br)n3)CC2)n1 [Compound 67] | 0.1 to 1 µM
15 | CC(C)[C@H]1CN(C)C(=O)N1c1ccnc(NC2(c3ncn(-c4cccc(C5CC5)c4)c3C#N)CC2)n1 [Compound 69, (S)-1-(3-cyclopropylphenyl)-4-(1-((4-(5-isopropyl-3-methyl-2-oxoimidazolidine-1-yl)pyrimidine-2-yl)amino)cyclopropyl)-1H-imidazole-5-carbonitrile] | 0.1 to 1 µM
16 | CC(C)[C@H]1CN(C)C(=O)N1c1ccnc(N[C@@H](C)c2ncn(-c3ccc(Cl)cc3)n2)n1 [Compound 70] | 0.1 to 1 µM
17 | CC(C)[C@H]1CN(C)C(=O)N1c1ccnc(NC(C)(C)c2cn(-c3ccc(Cl)cc3)cn2)n1 [Compound 72, (S)-3-(2-((2-(1-(4-chlorophenyl)-1H-imidazol-4-yl)prop-2-yl)amino)pyrimidin-4-yl)-4-isopropyl-1-methylimidazolidine-2-one] | 0.1 to 1 µM
18 | CCN1C[C@H](C(C)C)N(c2ccnc(N[C@@H](C)c3cn(-c4ccc(Cl)cc4)cn3)n2)C1=O [Compound 74, (S)-3-(2-(((S)-1-(1-(4-chlorophenyl) 1H-imidazol-4-yl)ethyl)amino)pyrimidin-4-yl)-1-ethyl-4-isopropylimidazolidine-2-one] | 0.1 to 1 µM
19 | Cc1cc(N2C(=O)N(C)C[C@@H]2C2CC2)nc(N[C@@H](C)c2cn(-c3ccc(Cl)cc3)cn2)n1 [Compound 79, (S)-3-(2-(((S)-1-(1-(4-chlorophenyl)-1H-imidazol-4-yl)ethyl)amino)-6-methylpyrimidin-4-yl) cyclopropyl-1-methylimidazolidine-2-one] | 0.1 to 1 µM
20 | CC(C)[C@@H]1N(c2ccnc(N[C@@H](C)c3cn(-c4ccc(Cl)cc4)cn3)n2)C(=O)NC12CC2 [Compound 99, (S)-6-(2-(((S)-1-(1-(4-chlorophenyl)-1H-imidazol-4-yl)ethyl)amino)pyrimidin-4-yl)-7-isopropyl-4,6-diazaspiro[2.4] hept-5-one] | 0.1 to 1 µM

Other lines, results leading:

Row | IC50 | Compound
21 | 0.1 to 1 µM | CC(C)[C@H]1CN(C)C(=O)N1c1ccnc(NC2(c3cn(C4CCC(F)(F)CC4)cn3)CC2)n1 [Compound 36, (S)-3-(2-((1-(1-(4,4-difluorocyclohexyl)-1H-imidazol-4-yl)cyclopropyl)amino)pyrimidin-4-yl)-4-isopropyl-1-methylimidazolidine-2-one]
22 | 0.1 to 1 µM | CC(C)[C@H]1CN(C)C(=O)N1c1ccnc(NC2(c3cn(-c4ccc(C5CC5)cc4)cn3)CC2)n1 [Compound 39, (S)-3-(2-((1-(1-(4-cyclopropylphenyl)-1H-imidazol-4-yl)cyclopropyl)amino)pyrimidin-4-yl)-4-isopropyl-1-methylimidazolidine-2-one]
23 | 0.1 to 1 µM | CC(C)[C@H]1CN(C)C(=O)N1c1ccnc(NC2(c3cn(CC4CCCC4)cn3)CC2)n1 [Compound 40, (S)-3-(2-((1-(1-(cyclopentylmethyl)-1H-imidazol-4-yl)cyclopropyl)amino)pyrimidin-4-yl)-4-isopropyl-1-methylimidazolidine-2-one]
24 | < 0.1 µM | CC(C)[C@H]1CN(C)C(=O)N1c1ccnc(NC2(c3cn(-c4cc(Cl)cc(C5CC5)c4)cn3)CC2)n1 [Compound 48]
25 | < 0.1 µM | CC(C)[C@H]1CN(C)C(=O)N1c1ccnc(NC2(c3cn(-c4cc(F)cc(C5CC5)c4)cn3)CC2)n1 [Compound 53]
26 | 0.1 to 1 µM | CC(C)c1cccc(-n2cnc([C@H](C)Nc3nccc(N4C(=O)N(C)C[C@@H]4C(C)C)n3)c2)c1 [Compound 54]
27 | 0.1 to 1 µM | CC(C)[C@H]1CN(C)C(=O)N1c1ccnc(N[C@@H](C)c2cn(C3CCC(C)(C)CC3)cn2)n1 [Compound 56, (S)-3-(2-(((S)-1-(1-(4,4-dimethylcyclohexyl)-1H-imidazol-4-yl)ethyl)amino)pyrimidin-4-yl)-4-isopropyl-1-methylimidazolidine-2-one]
28 | 0.1 to 1 µM | CC(C)[C@H]1CN(C)C(=O)N1c1ccnc(N[C@@H](C)c2cn(-c3cccc(C(F)(F)F)c3)cn2)n1 [Compound 59]
29 | 0.1 to 1 µM | CC(C)[C@H]1CN(C)C(=O)N1c1ccnc(N[C@@H](C)c2cn(-c3cc(Cl)cc(Cl)c3)cn2)n1 [Compound 60, (S)-3-(2-(((S)-1-(1-(3,5-dichlorophenyl)-1hydro-imidazol-4-yl)ethyl)amino)pyrimidin-4-yl)-4-isopropyl-1-methylimidazolidine-2-one]
30 | 0.1 to 1 µM | CC(C)[C@H]1CN(C)C(=O)N1c1ccnc(NC2(c3ncn(-c4cccc(C5CC5)c4)n3)CC2)n1 [Compound 64]
31 | 0.1 to 1 µM | CC(C)CCn1cnc([C@H](C)Nc2nccc(N3C(=O)N(C)C[C@@H]3C(C)C)n2)c1 [Compound 66, (S)-3-(2-(((S)-1-(1-isopentyl-1H-imidazol-4-yl)yl)amino)pyrimidin-4-yl)-4-isopropyl-1-methylimidazolidine-2-one]
32 | 0.1 to 1 µM | CC(C)[C@H]1CN(C)C(=O)N1c1ccnc(NC2(c3cn(-c4cccc(C5CC5)c4)cn3)CCC2)n1 [Compound 71, (S)-3-(2-((1-(1-(3-cyclopropylphenyl)-1H-imidazol-4-yl)cyclobutyl)amino)pyrimidin-4-yl)-4-isopropyl-1-methylimidazolidine-2-one]
33 | 0.1 to 1 µM | CC(C)[C@H]1CN(C2CC2)C(=O)N1c1ccnc(N[C@@H](C)c2cn(-c3ccc(Cl)cc3)cn2)n1 [Compound 73, (S)-3-(2-(((S)-1-(1-(4-chlorophenyl)-1H-imidazol-4-yl)ethyl)amino)pyrimidin-4-yl)-4-isopropyl-1-cyclopropylimidazolidine-2-one]
34 | 0.1 to 1 µM | CC(C)[C@H]1CN(C)C(=O)N1c1ccnc(N[C@@H](C)c2cn(C3CCC(F)(F)CC3)cn2)n1 [Compound 75, (S)-3-(2-(((S)-1-(1-(4,4-difluorocyclohexyl)-1H-imidazol-4-yl)ethyl)amino)pyrimidin-4-yl)-4-isopropyl-1-methylimidazolidine-2-one]
35 | 0.1 to 1 µM | C[C@H](Nc1nccc(N2C(=O)N(C)C[C@@H]2[C@@H](C)O)n1)c1cn(-c2ccc(Cl)cc2)cn1 [Compound 81]
